What was measured:
[1] = stability in DMSO; type: physicochemical
Procedure: Stability of compound I: When stored in the dark in anhydrous DMSO at −25° C., compound I is stable for periods up to 3 years (LC-MS).

[2] = test system: live mouse fibroblasts; experiment: photoactivation of nuclear fluorescence in live cells (time-lapse video microscopy); type: cell-based; settings: 5 μM, continuous illumination, Alexa488/FITC filter
Procedure: Compound I at 5 μM was added directly into the cell medium 10 min before observation in an inverted microscope Zeiss Axiovert 200M with a 100 W mercury lamp. Time lapse images were acquired using CoolSnap HQ (Photometrics, Inc.) black and white camera driven by the Metamorph software (Universal Imaging). All experiments were carried out using 40× or 63× (FIGS. 1C and D) oil immersion Apochromat Zeiss objectives. To measure the fluorescence intensities, an oval region was drawn inside of each nucleus using Metamorph software and integrated intensities (nuclear surface multiplied by the average pixel value) were logged for each image.
To quantify this effect, live mouse fibroblasts were incubated in the presence of 5 μM compound I and time-lapse video microscopy was used to film the cells. Nuclear fluorescence develops slowly in the nuclei of cells treated with compound I and illuminated continuously using a standard Alexa488/FITC filter set (475AF40, 535AF45) (FIG. 5A). Fluorescence peaked after 8 min of illumination and then started to fade (FIG. 5C), most likely reflecting the “bleaching” of compound I. The photoactivation concerned only the cells in the illuminated field, as nuclei of cells immediately outside of the illuminated field remained imperceptible (non-fluorescent). […]

[3] = test system: ds plasmid DNA or heat-denatured E. coli RNA; experiment: fluorescence titration with dsDNA versus RNA (selectivity); type: binding; settings: for emission strength with DNA relative to RNA: 50 μM DNA or RNA
Procedure: Plasmid dsDNA was purified using a Qiagen Maxiprep kit and used in the supercoiled form for absorption and fluorescence studies. E. coli total RNA was bought from Ambion, dA/dT and dG/dC homopolymers were purchased from Amersham Biosciences. Calf thymus (CT) high-molecular weight DNA and Hoechst 33258 were obtained from Sigma-Aldrich. Ethidium bromide was purchased from Amresco.
Spectrometry and fluorimetry were performed using a SpectraMax384 (Molecular Devices) and a Luminescence Spectrometer LS50B (Perkin Elmer). Fluorescence emission of compound I in complex with DNA and RNA was measured in 50 mM Na phosphate buffer, pH 7.2 at room temperature. Before use, total E. coli RNA was heated to 100° C. for 1 min and immediately transferred on ice for 5 min before mixing with compound I solution. All measurements were carried out at room temperature (20-23° C.) in solutions protected from light and incubated for ˜10-15 min after dilution. The units of b/dye and bp/dye are defined as moles of RNA bases or DNA base pairs per mole of dye. Quantum yield was measured using quinine sulphate as standard as described in (Iupac Commission on Photochemistry, EPA Newsletter of November 1986, 21-29) using FLUOROMAX-3 Spex Spectrofluorometer (HORIBA) and UVIKON XL Spectrophotometer (SECOMAM).
A number of known fluorescent dyes bind preferentially to dsDNA, while others, like the SYTO dyes, bind similarly well to dsDNA, ssDNA and RNA (Haugland, R. P. et al., supra). Knowing these properties is important to the design of experiments where one or another (or several) type(s) of nucleic acids may be present. To investigate the selectivity of compound I, the inventors have compared fluorescence intensities at 484 nm of the dye incubated with ds plasmid DNA or heat-denatured E. coli RNA. […] At higher dye/b or dye/bp ratio, the difference was smaller (1.8-fold at dye/b(bp) ratio 0.2), meaning that elevated amounts of dye could saturate both types of nucleic acids. The inventors then performed the experiment in the opposite sense, i.e. titrating a fixed amount of compound I at 1 μM with increasing amounts of DNA and RNA.

stability, period stable ([1]; DMSO at 4° C. in the dark): stable for at least one year
stability, period stable ([1]; DMSO solution, ambient temperature, dark): at least 48 hours
stability, period stable ([1]; anhydrous DMSO at −25° C., dark (LC-MS)): up to 3 years
SMILES: COc1ccc2c(c1)c(C)nc1c3ccc(OC)cc3c(NCCCN(C)C)nc21 [Compound I, N′-(2,8-dimethoxy-12-methyl-dibenzo[c,h][1,5]naphthyridin-6-yl)-N,N-dimethyl-propane-1,3-diamine]
illumination time to peak/plateau of nuclear fluorescence [2]: 8 min
saturation of fixed amount of dye by RNA (not saturated) ([3]; 1 μM dye): > 250 b/dye
saturation of fixed amount of dye by dsDNA ([3]; 1 μM dye): ~30 bp/dye
fluorescence with dsDNA relative to RNA ([3]; 1 μM dye titrated with DNA and RNA, same b(bp)/dye ratios): 2.5-3.6
emission strength with DNA relative to RNA ([3]; dye/b(bp) ratio 0.2): 1.8 fold
emission strength with DNA relative to RNA ([3]; low dye/bp and dye/b ratios, 484 nm): 6 fold

— patent US7728128B2, “Dibenzo[c,h][1,5]naphthyridines and their use as DNA probes” (Institut National de la Sante et de la Recherche Medicate …, priority 2006, dated 2010)
